Holding throughout (type): functional
Test [1] is described as follows: HEK-293T viability loss, compound-treated – cell-based, uHTS hits, cytotoxicity control for B/T-cell NF-kB inhibitor project, dose response (AID 489019).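 Also: IC50 reflects cytotoxicity as loss of cell viability.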
For test [2], the target named is T1, Sentrin-specific protease 8 (Homo sapiens, UniProt Q96LD8).
T1 sequence (Q96LD8 whole entry): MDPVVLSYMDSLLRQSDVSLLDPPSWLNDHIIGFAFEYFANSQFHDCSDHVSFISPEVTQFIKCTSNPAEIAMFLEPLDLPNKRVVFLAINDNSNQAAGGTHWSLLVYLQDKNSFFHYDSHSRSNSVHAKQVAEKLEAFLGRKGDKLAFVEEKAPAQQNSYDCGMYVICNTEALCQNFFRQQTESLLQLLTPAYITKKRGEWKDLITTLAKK

Test [3] has as its target T2, Microphthalmia-associated transcription factor (Homo sapiens, UniProt O75030).
T2 sequence (O75030 whole entry): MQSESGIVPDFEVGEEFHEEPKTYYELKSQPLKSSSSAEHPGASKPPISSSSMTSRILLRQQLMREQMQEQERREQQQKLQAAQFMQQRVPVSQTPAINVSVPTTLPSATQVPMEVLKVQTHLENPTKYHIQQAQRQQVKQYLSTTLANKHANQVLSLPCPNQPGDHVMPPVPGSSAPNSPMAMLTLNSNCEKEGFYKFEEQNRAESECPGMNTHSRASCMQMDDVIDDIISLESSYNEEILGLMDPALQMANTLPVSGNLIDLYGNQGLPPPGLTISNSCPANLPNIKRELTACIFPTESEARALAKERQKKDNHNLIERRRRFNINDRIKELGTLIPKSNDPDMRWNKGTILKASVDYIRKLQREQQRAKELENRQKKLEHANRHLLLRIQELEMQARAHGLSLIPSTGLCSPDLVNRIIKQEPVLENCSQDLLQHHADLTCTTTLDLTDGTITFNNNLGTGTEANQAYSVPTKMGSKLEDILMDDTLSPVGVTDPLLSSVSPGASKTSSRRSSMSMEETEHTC
The test can be described thus: reducers of TRPM1 reporter luminescence, concentration series – cell-based, SK-MEL-5, cherry-picked, set 3, MITF inhibitor project, dose response (AID 493073).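 Also: SK-MEL-5 melanoma cells with luciferase driven by the MITF target TRPM1 promoter.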

The target in test [4] is T1, Sentrin-specific protease 8. The test can be described thus: inhibition of human SENP8 cleavage activity – biochemical, luminescence, SAR follow-up (AID 504501).
The target of another test is T3, Caspase-3 (Homo sapiens, UniProt P42574).
T3 sequence (P42574 whole entry): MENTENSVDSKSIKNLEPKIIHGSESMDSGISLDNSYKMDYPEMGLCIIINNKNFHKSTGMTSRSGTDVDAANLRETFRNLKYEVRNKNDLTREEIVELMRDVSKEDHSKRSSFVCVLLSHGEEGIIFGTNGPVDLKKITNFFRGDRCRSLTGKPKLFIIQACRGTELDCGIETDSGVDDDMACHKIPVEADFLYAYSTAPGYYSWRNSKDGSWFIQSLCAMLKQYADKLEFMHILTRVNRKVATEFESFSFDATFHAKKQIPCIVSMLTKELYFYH
The test can be described thus: SAR Analysis of small molecule inhibitors of Sentrin-specific proteases (SENPs) using a Caspase-3 Selectivity assay. [Related pubchem assays (depositor defined):AID2540, AID2599, AID434973, AID489001].

For test [5], the target named is T4, Sentrin-specific protease 6 (Homo sapiens, UniProt Q9GZR1).
T4 sequence (Q9GZR1 whole entry): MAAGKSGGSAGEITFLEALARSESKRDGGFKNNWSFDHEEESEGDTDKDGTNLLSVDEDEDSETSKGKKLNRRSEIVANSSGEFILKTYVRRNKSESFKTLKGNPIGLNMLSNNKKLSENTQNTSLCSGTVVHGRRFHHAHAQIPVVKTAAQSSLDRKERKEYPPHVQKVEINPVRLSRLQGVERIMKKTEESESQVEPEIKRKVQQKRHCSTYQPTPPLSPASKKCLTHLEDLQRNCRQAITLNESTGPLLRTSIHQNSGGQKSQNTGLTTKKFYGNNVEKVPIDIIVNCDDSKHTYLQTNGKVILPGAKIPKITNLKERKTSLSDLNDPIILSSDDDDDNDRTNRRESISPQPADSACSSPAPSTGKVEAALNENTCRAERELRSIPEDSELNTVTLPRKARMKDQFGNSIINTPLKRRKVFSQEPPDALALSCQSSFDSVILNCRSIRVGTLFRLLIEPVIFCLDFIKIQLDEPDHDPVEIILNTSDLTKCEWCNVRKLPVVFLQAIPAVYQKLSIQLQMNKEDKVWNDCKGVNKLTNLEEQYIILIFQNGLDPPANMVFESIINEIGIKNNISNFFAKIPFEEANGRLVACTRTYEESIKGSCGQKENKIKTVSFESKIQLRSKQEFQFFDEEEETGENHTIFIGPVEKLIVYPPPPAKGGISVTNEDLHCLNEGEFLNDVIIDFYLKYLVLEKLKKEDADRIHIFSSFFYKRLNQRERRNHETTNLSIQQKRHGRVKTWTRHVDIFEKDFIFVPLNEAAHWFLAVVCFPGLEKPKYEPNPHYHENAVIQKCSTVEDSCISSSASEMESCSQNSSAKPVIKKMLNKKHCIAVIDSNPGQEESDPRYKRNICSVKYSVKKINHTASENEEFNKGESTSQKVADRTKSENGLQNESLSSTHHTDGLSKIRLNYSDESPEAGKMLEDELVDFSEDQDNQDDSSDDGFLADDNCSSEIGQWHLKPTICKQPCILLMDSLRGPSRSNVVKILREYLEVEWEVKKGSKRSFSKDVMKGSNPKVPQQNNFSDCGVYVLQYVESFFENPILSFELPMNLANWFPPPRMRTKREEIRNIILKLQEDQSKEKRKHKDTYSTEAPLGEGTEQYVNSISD
Briefly: SAR Analysis of small molecule inhibitors of Sentrin-specific protease 6 (SENP6) using a Luminescent assay. [Related pubchem assays (depositor defined):AID2582, AID2599].

The source made the active and inactive calls. Rule as the data show it, for most assays here: actives have a measured IC50 and inactives only a lower limit.

By IC50 is commonly meant the midpoint of a concentration-inhibition curve. A word on the AC50: it is the concentration giving half of the maximal activity seen.

For the compound `N#Cc1c(NC(=O)CSc2nc[nH]n2)sc2c1CCCCC2`, the IC50 in test [1] was > 80 µM (inactive); in test [2], 4.66 µM (active); in test [4], 12.7 µM (active); on Caspase-3, 40.4 µM (active); in test [5], 8.05 µM (active). Also, the AC50 in test [3] is 0.371 µM (active).

With `COc1ccc(C(N)c2nccc3cc(OC)c(OC)cc23)cc1OC` (centres undefined), the IC50 (in test [4]; at Caspase-3; in test [5]) was > 99 µM (inactive) in each case.

For the origin of these results see ChEMBL document CHEMBL1201862, “PubChem BioAssay data set” (2004).
